Experimental findings from ChEMBL document CHEMBL5696442, “Discovery of type II inhibitors of TGFβ-activated kinase 1 (TAK1) and mitogen-activated protein kinase kinase kinase kinase 2 (MAP4K2)” (J Med Chem, 2015) are described below.

Usually inhibition stands for the drop in the measured response relative to a control, in per cent.

SMILES strings stand for the structures. Active and inactive are the calls of the source. The rule behind the calls is not given here.

Assay [1] deals with 5'-AMP-activated protein kinase catalytic subunit alpha-1 (Homo sapiens) (UniProt Q13131). Nature of the assay: Inhibition of AMPKa1 Lys1 labeling site in human A-375 cells at 0.5 uM by KiNativ Profiling analysis relative to control. Type of assay: cell-based.
Assay [2] has as its target Proto-oncogene tyrosine-protein kinase Src (Homo sapiens, UniProt P12931). Nature of the assay: Inhibition of SRC ACT labeling site in human A-375 cells at 0.05 uM by KiNativ Profiling analysis relative to control. Format: cell-based.
For assay [3], the target named is T1, Dual specificity mitogen-activated protein kinase kinase 4 (Homo sapiens) (UniProt P45985).
T1 sequence (whole entry): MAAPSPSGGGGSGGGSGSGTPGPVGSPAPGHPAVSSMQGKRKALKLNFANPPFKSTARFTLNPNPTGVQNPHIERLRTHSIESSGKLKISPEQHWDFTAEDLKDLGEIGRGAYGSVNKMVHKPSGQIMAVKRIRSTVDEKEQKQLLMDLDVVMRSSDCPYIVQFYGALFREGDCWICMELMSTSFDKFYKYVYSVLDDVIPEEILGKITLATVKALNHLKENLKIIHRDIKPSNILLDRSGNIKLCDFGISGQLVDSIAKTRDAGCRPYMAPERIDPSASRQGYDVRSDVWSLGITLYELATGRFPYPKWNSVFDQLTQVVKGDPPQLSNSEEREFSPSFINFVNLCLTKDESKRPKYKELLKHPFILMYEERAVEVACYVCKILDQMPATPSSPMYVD
Briefly: Inhibition of MEK4 (unknown origin) at 1 uM by Ambit Kinomescan binding assay relative to control; values are per cent of control.

Assay [4] concerns the target T2, Phosphatidylinositol 5-phosphate 4-kinase type-2 gamma (Homo sapiens) (UniProt Q8TBX8).
T2 sequence (whole entry): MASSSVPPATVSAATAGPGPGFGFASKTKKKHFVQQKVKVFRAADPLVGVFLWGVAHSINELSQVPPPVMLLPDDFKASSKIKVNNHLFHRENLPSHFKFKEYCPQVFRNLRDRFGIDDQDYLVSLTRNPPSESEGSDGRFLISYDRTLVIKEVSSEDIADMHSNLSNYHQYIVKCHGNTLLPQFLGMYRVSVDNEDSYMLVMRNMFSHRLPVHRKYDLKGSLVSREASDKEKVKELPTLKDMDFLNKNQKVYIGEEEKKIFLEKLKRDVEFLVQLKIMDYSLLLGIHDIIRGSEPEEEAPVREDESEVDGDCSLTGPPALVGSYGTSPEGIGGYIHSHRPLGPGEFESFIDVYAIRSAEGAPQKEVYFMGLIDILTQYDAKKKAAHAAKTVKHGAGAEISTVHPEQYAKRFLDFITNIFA
Briefly: Inhibition of PIP4K2C ATP labeling site harbouring VKELPTLK in human A-375 cells at 0.05 uM by KiNativ Profiling analysis relative to control. Type of assay: cell-based.

In assay [5] the target is Discoidin domain-containing receptor 2 (Homo sapiens) (UniProt Q16832). Nature of the assay: Inhibition of DDR2 (unknown origin) at 1 uM by Ambit Kinomescan binding assay relative to control; values are per cent of control.
Assay [6] concerns the target Serine/threonine-protein kinase 24 (Homo sapiens) (UniProt Q9Y6E0). Briefly: Inhibition of MST3 ACT labeling site in human A-375 cells at 0.05 uM by KiNativ Profiling analysis relative to control. Format: cell-based.
Assay [7] deals with DNA-dependent protein kinase catalytic subunit (Homo sapiens) (UniProt P78527). Briefly: Inhibition of PRKDC ATP labeling site harbouring KGGSWIQEINVAEKNWYPR in human Huh-7 cells at 1 uM by KiNativ Profiling analysis relative to control. Type of assay: cell-based.
Assay [8] deals with Ribosomal protein S6 kinase alpha-1 (Homo sapiens) (UniProt Q15418). Briefly: Inhibition of RSK1 Domain 1 ACT labeling site harbouring LTDFGLSKEAIDHEKK in human Huh-7 cells at 1 uM by KiNativ Profiling analysis relative to control. Type of assay: cell-based.
Assay [9] concerns the target Peripheral plasma membrane protein CASK (Homo sapiens) (UniProt O14936). Briefly: Inhibition of CASK Lys1 labeling site in human A-375 cells at 0.5 uM by KiNativ Profiling analysis relative to control.
The target of assay [10] is Casein kinase I isoform gamma-2 (Homo sapiens) (UniProt P78368). Nature of the assay: Inhibition of CSNK1G2 (unknown origin) at 10 uM by Ambit Kinomescan binding assay.
Assay [11] deals with Misshapen-like kinase 1 (Homo sapiens) (UniProt Q8N4C8). Nature of the assay: Inhibition of ZC3/MINK K2 labeling site in human Huh-7 cells at 10 uM by KiNativ Profiling analysis relative to control. Type of assay: cell-based.
Assay [12] addresses Tyrosine-protein kinase Fes/Fps (Homo sapiens, UniProt P07332). Briefly: Inhibition of FES K1 labeling site in human Huh-7 cells at 1 uM by KiNativ Profiling analysis relative to control. Type of assay: cell-based.
Assay [13] has as its target Mitogen-activated protein kinase kinase kinase kinase 4 (Homo sapiens, UniProt O95819). Nature of the assay: Inhibition of ZC1/HGK K1 labeling site harbouring TGQLAAIKVMDVTEDEEEEIKLEINMLKK in human Huh-7 cells at 10 uM by KiNativ Profiling analysis relative to control. Type of assay: cell-based.
Assay [14] addresses Cyclin-dependent kinase 8 (Homo sapiens) (UniProt P49336). Briefly: Inhibition of CDK8 (unknown origin) at 10 uM by Ambit Kinomescan binding assay relative to control; values are per cent of control.
The next assay relates to RAW. Briefly: Inhibition of LPS induced p105 phosphorylation in mouse RAW cells preincubated for 1 hr followed by LPS stimulation and measured after 30 mins by Western blot analysis. Type of assay: functional, cell-based. Particulars: dose 0.01-10 µM. (In general: A western blot detects proteins with antibodies after separation by electrophoresis.)
The target of assay [15] is Misshapen-like kinase 1 (Homo sapiens) (UniProt Q8N4C8). Nature of the assay: Inhibition of ZC3 Lys2 labeling site in human A-375 cells at 5 uM by KiNativ Profiling analysis relative to control. Type of assay: cell-based.
The target in assay [16] is Ribosomal protein S6 kinase beta-2 (Homo sapiens) (UniProt Q9UBS0). Nature of the assay: Inhibition of p70S6Kb ATP labeling site in human Huh-7 cell lysate at 1 uM by KiNativ Profiling analysis relative to control. Type of assay: subcellular.
For assay [17], the target named is Tyrosine-protein kinase CSK (Homo sapiens, UniProt P41240). Briefly: Inhibition of CSK ACT labeling site harbouring EASSTQDTGKLPVKWTAPEALR in human Huh-7 cell lysate at 1 uM by KiNativ Profiling analysis relative to control. Type of assay: subcellular.
For assay [18], the target named is Aurora kinase B (Homo sapiens) (UniProt Q96GD4). Nature of the assay: Inhibition of AurB ATP labeling site in human Huh-7 cell lysate at 1 uM by KiNativ Profiling analysis relative to control. Type of assay: subcellular.
Assay [19] deals with Calcium/calmodulin-dependent protein kinase type II subunit delta (Homo sapiens) (UniProt Q13557). Briefly: Inhibition of CaMK2d Lys1 labeling site harbouring IPTGQEYAAKIINTKK in human Huh-7 cell lysate at 1 uM by KiNativ Profiling analysis relative to control. Type of assay: subcellular.
Assay [20] addresses Serine/threonine-protein kinase 24 (Homo sapiens) (UniProt Q9Y6E0). Briefly: Inhibition of MST3 Lys2 labeling site harbouring IHRDIKAANVLLSEHGEVK in human Huh-7 cell lysate at 1 uM by KiNativ Profiling analysis relative to control. Type of assay: subcellular.

Sequence of Misshapen-like kinase 1 (Homo sapiens) (Q8N4C8 whole entry, looked up): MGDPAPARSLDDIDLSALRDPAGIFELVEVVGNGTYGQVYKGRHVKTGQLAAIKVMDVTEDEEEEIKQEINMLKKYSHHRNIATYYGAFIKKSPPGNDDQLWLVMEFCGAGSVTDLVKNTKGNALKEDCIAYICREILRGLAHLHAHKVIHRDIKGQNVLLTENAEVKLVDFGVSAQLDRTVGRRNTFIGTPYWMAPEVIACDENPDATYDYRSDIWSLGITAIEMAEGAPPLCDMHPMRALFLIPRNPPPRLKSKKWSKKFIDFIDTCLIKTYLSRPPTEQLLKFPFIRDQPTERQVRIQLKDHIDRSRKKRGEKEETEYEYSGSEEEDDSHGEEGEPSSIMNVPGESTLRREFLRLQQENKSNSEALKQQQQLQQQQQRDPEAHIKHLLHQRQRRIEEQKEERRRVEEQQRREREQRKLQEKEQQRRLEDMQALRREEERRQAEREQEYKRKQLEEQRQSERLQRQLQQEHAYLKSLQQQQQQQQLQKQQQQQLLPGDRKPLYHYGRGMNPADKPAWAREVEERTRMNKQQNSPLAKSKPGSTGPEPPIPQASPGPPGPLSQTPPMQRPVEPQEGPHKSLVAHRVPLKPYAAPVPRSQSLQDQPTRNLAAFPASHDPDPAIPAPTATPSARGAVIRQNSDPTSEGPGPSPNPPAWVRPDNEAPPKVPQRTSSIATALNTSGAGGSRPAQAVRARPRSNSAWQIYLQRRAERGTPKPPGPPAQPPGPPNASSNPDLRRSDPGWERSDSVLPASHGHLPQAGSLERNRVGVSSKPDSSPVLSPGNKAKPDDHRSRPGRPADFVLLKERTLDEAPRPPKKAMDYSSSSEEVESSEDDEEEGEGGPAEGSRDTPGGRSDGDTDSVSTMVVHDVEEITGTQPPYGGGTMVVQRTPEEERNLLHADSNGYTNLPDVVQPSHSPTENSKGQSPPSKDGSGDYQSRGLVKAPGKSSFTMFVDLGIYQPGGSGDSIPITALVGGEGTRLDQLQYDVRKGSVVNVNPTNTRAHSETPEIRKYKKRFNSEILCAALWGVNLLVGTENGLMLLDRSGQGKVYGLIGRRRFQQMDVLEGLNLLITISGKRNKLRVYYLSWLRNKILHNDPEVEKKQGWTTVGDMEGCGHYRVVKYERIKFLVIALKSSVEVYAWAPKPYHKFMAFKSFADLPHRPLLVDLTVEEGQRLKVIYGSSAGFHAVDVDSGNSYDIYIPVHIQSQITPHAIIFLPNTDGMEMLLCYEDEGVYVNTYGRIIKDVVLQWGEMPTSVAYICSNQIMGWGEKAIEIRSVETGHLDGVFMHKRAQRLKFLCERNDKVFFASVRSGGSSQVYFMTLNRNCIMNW
Sequence of Serine/threonine-protein kinase 24 (Homo sapiens) (Q9Y6E0 whole entry, looked up): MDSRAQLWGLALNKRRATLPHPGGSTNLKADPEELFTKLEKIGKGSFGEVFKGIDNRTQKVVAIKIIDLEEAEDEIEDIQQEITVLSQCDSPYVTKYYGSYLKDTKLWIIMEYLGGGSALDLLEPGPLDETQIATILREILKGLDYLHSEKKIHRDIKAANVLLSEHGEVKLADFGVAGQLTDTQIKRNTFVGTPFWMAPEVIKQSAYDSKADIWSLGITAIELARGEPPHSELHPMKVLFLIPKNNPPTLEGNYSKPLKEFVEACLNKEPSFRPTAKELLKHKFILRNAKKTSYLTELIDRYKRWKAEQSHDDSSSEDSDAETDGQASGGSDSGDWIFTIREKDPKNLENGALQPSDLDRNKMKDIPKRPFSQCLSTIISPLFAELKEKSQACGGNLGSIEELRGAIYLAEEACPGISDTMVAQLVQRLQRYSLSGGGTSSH
Sequence of Tyrosine-protein kinase Fes/Fps (P07332 whole entry): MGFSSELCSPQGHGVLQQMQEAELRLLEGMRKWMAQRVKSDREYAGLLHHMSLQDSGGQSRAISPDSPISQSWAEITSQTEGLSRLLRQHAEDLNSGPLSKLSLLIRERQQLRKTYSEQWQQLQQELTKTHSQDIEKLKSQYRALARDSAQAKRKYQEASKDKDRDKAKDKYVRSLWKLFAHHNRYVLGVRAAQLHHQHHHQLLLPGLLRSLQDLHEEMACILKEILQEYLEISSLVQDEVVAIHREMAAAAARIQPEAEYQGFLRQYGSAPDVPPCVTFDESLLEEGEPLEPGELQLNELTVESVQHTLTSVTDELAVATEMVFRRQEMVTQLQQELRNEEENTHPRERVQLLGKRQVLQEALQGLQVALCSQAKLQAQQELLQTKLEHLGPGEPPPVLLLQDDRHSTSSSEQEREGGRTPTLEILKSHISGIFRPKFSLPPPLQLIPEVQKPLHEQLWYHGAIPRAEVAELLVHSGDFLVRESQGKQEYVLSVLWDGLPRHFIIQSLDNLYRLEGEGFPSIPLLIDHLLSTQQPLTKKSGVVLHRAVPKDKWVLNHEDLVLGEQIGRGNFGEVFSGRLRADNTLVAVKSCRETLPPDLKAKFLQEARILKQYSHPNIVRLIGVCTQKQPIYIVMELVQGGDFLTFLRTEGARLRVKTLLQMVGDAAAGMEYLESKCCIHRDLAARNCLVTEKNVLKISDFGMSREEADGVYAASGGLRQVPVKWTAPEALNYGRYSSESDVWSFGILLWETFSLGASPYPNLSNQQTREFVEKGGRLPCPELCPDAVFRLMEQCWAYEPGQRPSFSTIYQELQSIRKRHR
Sequence of Calcium/calmodulin-dependent protein kinase type II subunit delta (Homo sapiens) (Q13557 whole entry): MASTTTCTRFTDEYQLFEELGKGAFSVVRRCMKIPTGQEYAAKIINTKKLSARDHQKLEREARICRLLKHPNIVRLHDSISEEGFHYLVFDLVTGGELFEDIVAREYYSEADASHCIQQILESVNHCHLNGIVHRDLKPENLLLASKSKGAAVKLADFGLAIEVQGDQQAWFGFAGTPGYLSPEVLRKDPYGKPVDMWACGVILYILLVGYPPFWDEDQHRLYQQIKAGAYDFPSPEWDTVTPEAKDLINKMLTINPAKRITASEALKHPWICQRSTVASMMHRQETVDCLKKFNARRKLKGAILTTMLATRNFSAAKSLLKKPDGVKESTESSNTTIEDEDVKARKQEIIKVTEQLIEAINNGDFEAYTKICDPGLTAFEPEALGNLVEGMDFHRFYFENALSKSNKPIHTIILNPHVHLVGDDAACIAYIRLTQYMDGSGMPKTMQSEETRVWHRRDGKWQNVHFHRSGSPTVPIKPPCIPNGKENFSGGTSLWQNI
Sequence of Casein kinase I isoform gamma-2 (Homo sapiens) (P78368 whole entry, looked up, canonical isoform): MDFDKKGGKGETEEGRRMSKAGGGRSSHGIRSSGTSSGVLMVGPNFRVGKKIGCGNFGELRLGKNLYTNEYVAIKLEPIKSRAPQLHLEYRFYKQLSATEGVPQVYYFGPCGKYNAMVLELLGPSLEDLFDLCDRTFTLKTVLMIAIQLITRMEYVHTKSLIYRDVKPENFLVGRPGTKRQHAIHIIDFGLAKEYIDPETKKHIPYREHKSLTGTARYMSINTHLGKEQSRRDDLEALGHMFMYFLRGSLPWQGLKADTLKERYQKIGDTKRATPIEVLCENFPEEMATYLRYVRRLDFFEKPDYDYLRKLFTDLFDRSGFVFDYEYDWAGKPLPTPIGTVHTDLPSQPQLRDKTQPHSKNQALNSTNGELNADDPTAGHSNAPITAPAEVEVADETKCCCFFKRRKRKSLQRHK
Sequence of Ribosomal protein S6 kinase alpha-1 (Homo sapiens) (Q15418 whole entry, the tested form may be a part): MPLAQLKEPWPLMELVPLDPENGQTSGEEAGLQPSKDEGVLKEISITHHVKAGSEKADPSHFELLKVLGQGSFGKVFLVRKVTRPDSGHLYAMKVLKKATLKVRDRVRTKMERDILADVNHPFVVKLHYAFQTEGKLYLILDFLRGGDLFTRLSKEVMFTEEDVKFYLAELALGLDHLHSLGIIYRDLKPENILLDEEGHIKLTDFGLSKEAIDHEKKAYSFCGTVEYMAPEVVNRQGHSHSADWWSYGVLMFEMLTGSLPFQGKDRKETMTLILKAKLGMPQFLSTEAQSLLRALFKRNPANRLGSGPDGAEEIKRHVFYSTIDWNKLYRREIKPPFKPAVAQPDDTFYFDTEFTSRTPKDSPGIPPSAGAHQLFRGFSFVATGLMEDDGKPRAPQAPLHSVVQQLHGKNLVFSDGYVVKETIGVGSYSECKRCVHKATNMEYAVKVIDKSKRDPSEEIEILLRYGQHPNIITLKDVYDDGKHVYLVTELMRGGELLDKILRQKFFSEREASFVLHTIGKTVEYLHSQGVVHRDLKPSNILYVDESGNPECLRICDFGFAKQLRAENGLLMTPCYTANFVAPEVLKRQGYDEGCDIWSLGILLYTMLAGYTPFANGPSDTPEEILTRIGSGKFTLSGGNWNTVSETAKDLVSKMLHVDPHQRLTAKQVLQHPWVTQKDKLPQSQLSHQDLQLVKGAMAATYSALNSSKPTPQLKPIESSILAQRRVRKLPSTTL
Sequence of Aurora kinase B (Homo sapiens) (Q96GD4 whole entry): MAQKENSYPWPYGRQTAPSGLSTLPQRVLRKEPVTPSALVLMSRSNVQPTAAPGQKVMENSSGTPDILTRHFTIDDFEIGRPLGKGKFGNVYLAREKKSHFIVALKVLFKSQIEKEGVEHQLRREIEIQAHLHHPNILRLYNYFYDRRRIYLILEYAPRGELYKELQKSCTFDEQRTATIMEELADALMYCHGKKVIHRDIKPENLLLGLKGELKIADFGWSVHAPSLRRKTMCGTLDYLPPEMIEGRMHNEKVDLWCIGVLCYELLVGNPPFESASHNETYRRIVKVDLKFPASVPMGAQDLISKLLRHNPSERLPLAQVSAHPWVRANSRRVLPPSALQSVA
Sequence of Tyrosine-protein kinase CSK (P41240 2-450 limits assumed): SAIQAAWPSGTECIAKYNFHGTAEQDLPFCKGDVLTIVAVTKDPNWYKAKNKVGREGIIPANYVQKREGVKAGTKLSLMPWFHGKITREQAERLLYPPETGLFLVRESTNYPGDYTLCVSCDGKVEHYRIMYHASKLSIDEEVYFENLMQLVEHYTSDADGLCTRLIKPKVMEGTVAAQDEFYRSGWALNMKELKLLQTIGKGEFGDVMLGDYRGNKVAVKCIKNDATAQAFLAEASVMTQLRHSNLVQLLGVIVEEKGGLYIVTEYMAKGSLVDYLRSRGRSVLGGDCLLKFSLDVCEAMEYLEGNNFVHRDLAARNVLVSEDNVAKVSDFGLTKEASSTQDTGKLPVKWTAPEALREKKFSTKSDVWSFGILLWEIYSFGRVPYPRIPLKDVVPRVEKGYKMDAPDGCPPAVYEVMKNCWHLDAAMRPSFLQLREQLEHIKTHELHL

In the case of `CCN1CCN(Cc2ccc(NC(=O)c3ccc(C)c(/C=C/c4cnc5[nH]ccc5c4OC)c3)cc2C(F)(F)F)CC1`, the inhibition was 20.3% in assay [1], 38.9% in assay [2], -8.6% in assay [4] and 13.5% in [6]. Also, the values for the residual activity in assay [3] and in [5] were 100% and 0.2%, respectively.
Take `CCN1CCN(Cc2ccc(NC(=O)c3ccc(C)c(Oc4ccnc5[nH]ccc45)c3)cc2C(F)(F)F)CC1`: the inhibition in assay [7] was 30.8%; in [8], 6.9%; in assay [9], 5.8%; in assay [11], 72.6%; in assay [12], -4.5%; in assay [13], 75.4%. Moreover, the inhibition result in the assay with RAW is “Dose-Dependent Effect”; in [15], 92.7%. Further, the inhibition result in [10] is “inactive”. In assay [14], the percent of control came out at 3.9%.
As for `CNc1cc(Oc2cc(C(=O)Nc3cc(N4CCN(C)CC4)cc(C(F)(F)F)c3)ccc2C)ncn1`, the inhibition was determined as 2.8% in assay [16]; 0.4% in [17]; 2.5% in assay [18]; 15.4% in assay [19]; 15.9% in assay [20].
